Here are results for 3 compounds from patent US20200239530A1, “COMPOUNDS AND METHODS OF MODULATING PROTEIN DEGRADATION” (Vividion Therapeutics, Inc., priority 2017, published 2020).

Assay in all cases: Cysteine liganding, probe competition
Common to all, as to format: binding

In assay [1] the target is T1, UniProt Q9BUZ4 (Homo sapiens, UniProt Q9BUZ4).
T1 construct: 200 μL of lysate containing 5 mg/ml proteome was treated with 2 μL of 100× compound stock; endogenous in cells
The following applies: 100 uM. From the text:
(§1) The following 96-well sample prep protocol was used for sample preparation.

Assay [2] addresses T2, UniProt Q15025 (Homo sapiens, UniProt Q15025).
T2 construct: 200 μL of lysate containing 5 mg/ml proteome was treated with 2 μL of 100× compound stock; endogenous in cells
The conditions noted are these: 100 uM.
Source text: as §1

Assay [3] has as its target T3, UniProt Q8NG27 (Homo sapiens, UniProt Q8NG27).
T3 construct: 200 μL of lysate containing 5 mg/ml proteome was treated with 2 μL of 100× compound stock; endogenous in cells
The following applies: 100 uM.
Source text: as §1

Assay [4] concerns the target T4, UniProt Q96PU5 (Homo sapiens, UniProt Q96PU5).
T4 construct: Cells were resuspended in cold PBS on ice and sonicated with a probe sonicator to achieve lysis; endogenous in cells
Source text: as §1

Assay [5] has as its target T5, UniProt O00635 (Homo sapiens, UniProt O00635).
T5 construct: 200 μL of lysate containing 5 mg/ml proteome was treated with 2 μL of 100× compound stock; endogenous in cells
Source text: as §1

Assay [6] deals with T6, UniProt E7ERA6 (Homo sapiens, UniProt E7ERA6).
T6 construct: 200 μL of lysate containing 5 mg/ml proteome was treated with 2 μL of 100× compound stock; endogenous in cells
Source text: as §1

The target in assay [7] is T7, UniProt O15344 (Homo sapiens, UniProt O15344).
T7 construct: Cells were resuspended in cold PBS on ice and sonicated with a probe sonicator to achieve lysis; endogenous in cells
The following applies: 500 uM.
Source text: as §1

The target of assay [8] is T8, UniProt Q7Z6E9 (Homo sapiens, UniProt Q7Z6E9).
T8 construct: 200 μL of lysate containing 5 mg/ml proteome was treated with 2 μL of 100× compound stock; endogenous in cells
The following applies: read-out: KB02_100 uM_percent_inhibition.
Source text: as §1

Assay [9] addresses T9, UniProt Q9H000 (Homo sapiens, UniProt Q9H000).
T9 construct: Cells were resuspended in cold PBS on ice and sonicated with a probe sonicator to achieve lysis; endogenous in cells
The conditions noted are these: 100 uM.
Source text: as §1

The target of assay [10] is T10, UniProt Q7L0R7 (Homo sapiens, UniProt Q7L0R7).
T10 construct: 200 μL of lysate containing 5 mg/ml proteome was treated with 2 μL of 100× compound stock; endogenous in cells
Source text: as §1

The target of assay [11] is T11, UniProt Q13114 (Homo sapiens, UniProt Q13114).
T11 construct: 200 μL of lysate containing 5 mg/ml proteome was treated with 2 μL of 100× compound stock; endogenous in cells
The following applies: read-out: percent_inhibition.
Source text: as §1

The target in assay [12] is T12, UniProt Q9NRJ4 (Homo sapiens, UniProt Q9NRJ4).
T12 construct: 200 μL of lysate containing 5 mg/ml proteome was treated with 2 μL of 100× compound stock; endogenous in cells
The conditions noted are these: read-out: KB02_100 uM_percent_inhibition.
Source text: as §1

The target of assay [13] is T13, UniProt Q5U5Q3 (Homo sapiens, UniProt Q5U5Q3).
T13 construct: Cells were resuspended in cold PBS on ice and sonicated with a probe sonicator to achieve lysis; endogenous in cells
The following applies: read-out: percent inhibition.
Source text: as §1

For assay [14], the target named is T14, UniProt P0DH78 (Homo sapiens, UniProt P0DH78).
T14 construct: 200 μL of lysate containing 5 mg/ml proteome was treated with 2 μL of 100× compound stock; endogenous in cells
The following applies: read-out: percent_inhibition.
Source text: as §1

For assay [15], the target named is T15, UniProt Q5VTB9 (Homo sapiens, UniProt Q5VTB9).
T15 construct: 200 μL of lysate containing 5 mg/ml proteome was treated with 2 μL of 100× compound stock; endogenous in cells
The following applies: read-out: percent_inhibition.
Source text: as §1

Assay [16] concerns the target T16, UniProt Q86YT6 (Homo sapiens, UniProt Q86YT6).
T16 construct: Cells were resuspended in cold PBS on ice and sonicated with a probe sonicator to achieve lysis; endogenous in cells
The conditions noted are these: read-out: percent inhibition.
Source text: as §1

Assay [17] concerns the target T17, UniProt Q9UPQ7 (Homo sapiens, UniProt Q9UPQ7).
T17 construct: 200 μL of lysate containing 5 mg/ml proteome was treated with 2 μL of 100× compound stock; endogenous in cells
Source text: as §1

The target of assay [18] is T18, UniProt Q9C030 (Homo sapiens, UniProt Q9C030).
T18 construct: 200 μL of lysate containing 5 mg/ml proteome was treated with 2 μL of 100× compound stock; endogenous in cells
The following applies: read-out: KB05_500 uM_percent_inhibition.
Source text: as §1

Assay [19] addresses T19, UniProt O14512 (Homo sapiens, UniProt O14512).
T19 construct: 200 μL of lysate containing 5 mg/ml proteome was treated with 2 μL of 100× compound stock; endogenous in cells
The following applies: read-out: percent_inhibition.
Source text: as §1

SMILES strings stand for the structures.

T10 sequence (Q7L0R7 whole entry, change not shown): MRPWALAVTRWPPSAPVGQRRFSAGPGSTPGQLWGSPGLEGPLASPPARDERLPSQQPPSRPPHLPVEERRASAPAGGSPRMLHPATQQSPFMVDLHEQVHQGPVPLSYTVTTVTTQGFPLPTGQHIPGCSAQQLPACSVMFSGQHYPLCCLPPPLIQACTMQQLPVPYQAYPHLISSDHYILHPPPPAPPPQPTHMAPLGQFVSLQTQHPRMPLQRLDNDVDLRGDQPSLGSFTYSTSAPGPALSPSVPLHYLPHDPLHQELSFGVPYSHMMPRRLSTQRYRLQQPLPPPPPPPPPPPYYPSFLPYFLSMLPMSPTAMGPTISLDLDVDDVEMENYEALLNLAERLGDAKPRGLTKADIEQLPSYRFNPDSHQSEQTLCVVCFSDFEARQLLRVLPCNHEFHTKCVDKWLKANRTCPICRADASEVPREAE
T4 sequence (Q96PU5 whole entry, change not shown): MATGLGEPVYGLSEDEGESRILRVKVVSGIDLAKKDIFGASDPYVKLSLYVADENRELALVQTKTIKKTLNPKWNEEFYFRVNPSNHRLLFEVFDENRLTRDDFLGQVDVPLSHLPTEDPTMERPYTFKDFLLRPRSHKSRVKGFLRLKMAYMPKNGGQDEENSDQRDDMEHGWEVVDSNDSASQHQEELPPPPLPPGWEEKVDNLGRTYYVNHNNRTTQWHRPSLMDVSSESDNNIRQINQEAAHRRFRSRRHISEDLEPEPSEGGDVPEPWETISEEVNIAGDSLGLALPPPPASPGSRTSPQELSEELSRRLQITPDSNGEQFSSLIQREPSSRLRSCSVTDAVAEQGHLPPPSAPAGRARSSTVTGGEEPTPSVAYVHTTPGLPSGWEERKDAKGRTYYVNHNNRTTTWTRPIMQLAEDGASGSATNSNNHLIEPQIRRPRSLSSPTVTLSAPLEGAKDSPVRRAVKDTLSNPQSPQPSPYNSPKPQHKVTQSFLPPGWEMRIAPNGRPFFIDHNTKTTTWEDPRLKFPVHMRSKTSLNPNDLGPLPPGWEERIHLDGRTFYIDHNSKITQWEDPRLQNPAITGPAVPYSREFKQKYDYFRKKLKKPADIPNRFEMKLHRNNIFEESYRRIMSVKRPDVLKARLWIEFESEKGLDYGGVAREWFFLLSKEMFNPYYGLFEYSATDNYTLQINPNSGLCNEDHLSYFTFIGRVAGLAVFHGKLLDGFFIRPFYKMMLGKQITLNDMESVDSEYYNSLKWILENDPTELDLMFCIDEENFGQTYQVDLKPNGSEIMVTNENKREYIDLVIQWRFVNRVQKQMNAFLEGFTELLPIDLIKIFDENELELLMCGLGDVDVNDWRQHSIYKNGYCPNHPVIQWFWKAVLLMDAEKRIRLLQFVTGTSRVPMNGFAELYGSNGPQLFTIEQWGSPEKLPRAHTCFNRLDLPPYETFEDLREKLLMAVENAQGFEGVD
T17 sequence (Q9UPQ7 whole entry, change not shown): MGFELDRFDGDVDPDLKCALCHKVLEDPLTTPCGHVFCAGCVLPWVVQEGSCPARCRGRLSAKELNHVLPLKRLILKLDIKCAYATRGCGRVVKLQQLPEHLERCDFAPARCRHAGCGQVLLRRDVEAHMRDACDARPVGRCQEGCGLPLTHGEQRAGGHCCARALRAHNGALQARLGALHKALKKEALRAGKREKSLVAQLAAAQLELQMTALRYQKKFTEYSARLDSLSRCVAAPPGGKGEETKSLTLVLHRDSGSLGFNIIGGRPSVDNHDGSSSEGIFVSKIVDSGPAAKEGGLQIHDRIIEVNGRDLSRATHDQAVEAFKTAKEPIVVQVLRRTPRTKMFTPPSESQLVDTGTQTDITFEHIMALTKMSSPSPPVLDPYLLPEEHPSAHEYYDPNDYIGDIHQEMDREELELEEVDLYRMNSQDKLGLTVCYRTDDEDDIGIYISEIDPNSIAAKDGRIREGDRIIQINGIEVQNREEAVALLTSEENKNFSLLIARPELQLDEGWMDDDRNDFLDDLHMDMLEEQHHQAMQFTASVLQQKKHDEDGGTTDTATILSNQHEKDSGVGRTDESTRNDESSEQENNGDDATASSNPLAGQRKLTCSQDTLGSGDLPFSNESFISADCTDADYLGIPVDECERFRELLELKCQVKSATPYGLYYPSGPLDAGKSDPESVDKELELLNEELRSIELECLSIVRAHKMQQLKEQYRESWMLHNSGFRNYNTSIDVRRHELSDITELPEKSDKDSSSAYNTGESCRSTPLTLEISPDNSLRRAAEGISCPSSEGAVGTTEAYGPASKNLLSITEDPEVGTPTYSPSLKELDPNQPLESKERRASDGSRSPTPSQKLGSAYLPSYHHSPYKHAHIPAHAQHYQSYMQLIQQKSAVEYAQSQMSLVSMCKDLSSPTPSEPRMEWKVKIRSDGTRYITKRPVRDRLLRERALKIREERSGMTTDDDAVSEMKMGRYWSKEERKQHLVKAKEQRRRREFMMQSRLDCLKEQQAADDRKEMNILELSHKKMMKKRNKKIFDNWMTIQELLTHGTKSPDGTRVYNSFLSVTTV
T14 sequence (P0DH78 whole entry, change not shown): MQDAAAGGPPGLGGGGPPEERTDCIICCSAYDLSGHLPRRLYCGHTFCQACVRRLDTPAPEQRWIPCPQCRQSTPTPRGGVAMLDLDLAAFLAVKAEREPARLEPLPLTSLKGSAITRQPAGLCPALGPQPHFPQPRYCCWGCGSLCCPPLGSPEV
T5 sequence (O00635 whole entry, change not shown): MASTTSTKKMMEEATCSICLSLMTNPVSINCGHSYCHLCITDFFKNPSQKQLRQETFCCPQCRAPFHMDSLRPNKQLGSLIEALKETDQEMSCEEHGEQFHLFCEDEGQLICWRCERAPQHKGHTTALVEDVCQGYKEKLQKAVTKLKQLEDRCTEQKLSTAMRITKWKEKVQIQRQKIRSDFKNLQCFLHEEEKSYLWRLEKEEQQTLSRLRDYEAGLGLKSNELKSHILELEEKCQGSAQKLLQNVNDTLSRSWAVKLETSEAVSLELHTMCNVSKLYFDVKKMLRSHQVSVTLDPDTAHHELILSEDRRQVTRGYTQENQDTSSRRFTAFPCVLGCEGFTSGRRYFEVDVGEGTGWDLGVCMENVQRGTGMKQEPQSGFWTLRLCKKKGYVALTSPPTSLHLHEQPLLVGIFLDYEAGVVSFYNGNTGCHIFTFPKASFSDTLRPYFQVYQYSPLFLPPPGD
T6 sequence (E7ERA6 whole entry, change not shown): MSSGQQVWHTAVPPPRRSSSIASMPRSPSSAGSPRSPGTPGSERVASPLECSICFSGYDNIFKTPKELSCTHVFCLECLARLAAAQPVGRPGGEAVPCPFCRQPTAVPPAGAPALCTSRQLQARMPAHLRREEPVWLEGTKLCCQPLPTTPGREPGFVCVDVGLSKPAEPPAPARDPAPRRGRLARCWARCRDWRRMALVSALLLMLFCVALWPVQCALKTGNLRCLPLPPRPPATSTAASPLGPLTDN
T2 sequence (Q15025 whole entry, change not shown): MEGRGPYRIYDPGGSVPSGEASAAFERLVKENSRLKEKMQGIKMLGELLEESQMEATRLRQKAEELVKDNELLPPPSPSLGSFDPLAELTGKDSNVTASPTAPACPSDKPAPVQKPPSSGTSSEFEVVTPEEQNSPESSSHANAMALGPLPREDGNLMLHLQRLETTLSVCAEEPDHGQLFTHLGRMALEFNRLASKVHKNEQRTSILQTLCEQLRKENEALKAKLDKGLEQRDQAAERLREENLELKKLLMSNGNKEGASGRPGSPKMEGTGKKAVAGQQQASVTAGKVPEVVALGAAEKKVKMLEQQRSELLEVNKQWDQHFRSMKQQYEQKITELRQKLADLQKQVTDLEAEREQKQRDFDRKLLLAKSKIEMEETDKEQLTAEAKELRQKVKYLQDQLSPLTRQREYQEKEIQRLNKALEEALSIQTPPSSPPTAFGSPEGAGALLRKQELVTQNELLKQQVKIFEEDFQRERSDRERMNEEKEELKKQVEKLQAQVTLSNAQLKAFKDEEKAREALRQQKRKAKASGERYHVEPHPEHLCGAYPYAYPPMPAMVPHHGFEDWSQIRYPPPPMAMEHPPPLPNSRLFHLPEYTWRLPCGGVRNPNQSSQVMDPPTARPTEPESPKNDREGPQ
T19 sequence (O14512 whole entry, change not shown): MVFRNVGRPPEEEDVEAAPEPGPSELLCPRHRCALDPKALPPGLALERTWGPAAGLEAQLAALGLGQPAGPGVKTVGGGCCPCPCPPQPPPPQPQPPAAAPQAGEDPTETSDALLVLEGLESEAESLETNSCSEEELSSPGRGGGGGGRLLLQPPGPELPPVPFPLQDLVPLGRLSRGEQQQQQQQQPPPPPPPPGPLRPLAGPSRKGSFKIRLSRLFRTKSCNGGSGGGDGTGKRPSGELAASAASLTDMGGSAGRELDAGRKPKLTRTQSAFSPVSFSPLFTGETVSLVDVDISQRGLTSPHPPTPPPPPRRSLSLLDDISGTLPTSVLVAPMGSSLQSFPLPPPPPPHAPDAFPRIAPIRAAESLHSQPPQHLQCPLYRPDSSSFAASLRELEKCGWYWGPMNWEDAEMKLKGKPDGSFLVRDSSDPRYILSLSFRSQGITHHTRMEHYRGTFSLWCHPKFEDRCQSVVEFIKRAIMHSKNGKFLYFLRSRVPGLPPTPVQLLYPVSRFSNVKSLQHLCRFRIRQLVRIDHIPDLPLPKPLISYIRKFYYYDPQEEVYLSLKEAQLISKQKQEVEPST
T9 sequence (Q9H000 whole entry, change not shown): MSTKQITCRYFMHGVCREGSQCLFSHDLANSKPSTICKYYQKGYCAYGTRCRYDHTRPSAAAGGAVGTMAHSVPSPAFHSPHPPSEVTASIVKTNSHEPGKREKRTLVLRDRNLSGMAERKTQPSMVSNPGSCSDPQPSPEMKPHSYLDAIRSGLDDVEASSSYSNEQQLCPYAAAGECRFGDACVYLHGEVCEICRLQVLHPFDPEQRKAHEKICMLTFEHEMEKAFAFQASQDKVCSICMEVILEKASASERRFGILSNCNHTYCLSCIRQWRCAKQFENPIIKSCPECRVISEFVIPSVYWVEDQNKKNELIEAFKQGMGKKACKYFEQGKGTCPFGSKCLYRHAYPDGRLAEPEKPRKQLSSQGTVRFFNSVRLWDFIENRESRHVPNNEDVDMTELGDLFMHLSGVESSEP

`O=C(CCl)Nc1cc(C(F)(F)F)cc(C(F)(F)F)c1` [KBO3]: the percent_inhibition in assay [1] is recorded as 30%; in [2] it was 3%. The “KB03_100 uM_percent_inhibition” value in assay [3] turned out to be 16%.

Take `COc1ccc2c(c1)CCCN2C(=O)CCl` [KB02]: the percent inhibition in assay [4] (100 uM) was determined as 33%; in assay [7], 24%; in [9], 24%. Further, the inhibition at 100 µM in assay [4] (read-out: percent inhibition) was 30%; in assay [5] (read-out: KB02_100 uM_percent_inhibition) it was 8%; in assay [8] it was 23%; in assay [10] (100 uM, read-out: percent_inhibition), 44%; in [11] it was 33%; in assay [12], 28%. Also, the inhibition at 100 µM in [13] was 5%; in assay [14] (100 uM), 17%. Besides, in assay [5] (100 uM), the “KB02_100 uM_percent_inhibition” value was determined as 7%. In addition, the percent_inhibition in assay [6] (500 uM) is recorded as 38%; in [10] (500 uM), 42%. The inhibition at 500 µM was found to be 35% in [6] (read-out: percent_inhibition); 41% in assay [10] (500 uM, read-out: percent_inhibition); 67% in [14] (500 uM).

Regarding `C=CC(=O)N(c1ccccc1)c1ccc(Br)cc1` [KB05], the inhibition at 100 µM in assay [15] came out at 2%; in assay [16], 31%; in [17] (read-out: KB05_100 uM_percent_inhibition), 20%. The “KB05_100 uM_percent_inhibition” value in assay [17] (100 uM) is 24%. The inhibition at 500 µM was 53% in assay [18] and 89% in assay [19].
